Where two headings read alike, the source gives them in different places.
Tests used:
[1] = biological target: T1, T1r2a/T1r3 full-length receptor (Oryzias latipes, UniProt A0A173M094+A0A173M0G2); set-up: method as in PMID 28534491; details: ref [11]; cited from earlier work
[2] = biological target: T1, T1r2a/T1r3 full-length receptor; experiment: Ca2+-flux receptor response assay in Flip-In 293 cells stably expressing full-length T1r2a, T1r3 and Gα16-gust44; format: cell-based, O. latipes; details: for ΔRFU: average ± s.e.m.
Method: The Ca^2+-flux assay was performed using Flip-In 293 cell line (Life Technologies) stably expressing full-length T1r2a, T1r3, and Gα16-gust44 as described previously. The response stimulated by either 5 or 10 mM amino acid was represented asΔRFU (delta relative fluorescence unit) defined as the maximum fluorescence intensity induced by the addition of the amino acid, subtracted with that of an assay buffer in the absence of amino acid.

[3] = biological target: medaka T1r2a/T1r3LBD (Oryzias latipes, UniProt A0A173M094+A0A173M0G2); experiment: Differential scanning fluorimetry (DSF) thermal shift ligand-binding assay; set-up: species or system O. latipes; details: for ΔTm: average ± s.e.m., n = 4; for effect on thermal stability / Tm shift of T1r2a/T1r3LBD (in words): DSF, 0.1-10 mM amino acid
Method: The protein sample was prepared as described previously. Briefly, Drosophila S2 cells (Invitrogen) stably expressing C-terminal FLAG-tagged T1r2aLBD and T1r3LBD [11, 21] were cultured in ExpressFiveSFM (LifeTechnologies) for five days at 27 °C. The T1r2a/T1r3-LBD protein was purified from the culture medium by the use of ANTI-FLAG M2 Affinity Gel (SIGMA). The purified protein was dialyzed against the assay buffer (20 mM Tris-HCl, 300 mM NaCl, 2 mM CaCl2, pH 8.0).
The protein sample (~1 μg) was mixed with Protein Thermal Shift Dye (Applied Biosystems) and 10~10,000 μM concentration of each amino acid in 20 μL of assay buffer and loaded to a MicroAmpR Fast Optical 48-Well Reaction Plate (Applied Biosystems). Specifically, to minimize the changes of the chemical and optical condition, the amino acid solutions were prepared by the exact same buffer used for the final dialysis of the protein, followed by the re-adjustment of the pH to ~ 8.0 by addition of either NaOH or HCl, and mixed with the protein diluted with the same buffer.
Fluorescent intensity was measured by the StepOne Real-Time PCR System (Applied Biosystems). The temperature was raised from 25 °C to 99 °C with a velocity of 0.022 °C/sec. The reporter and quencher for detection were set as “ROX” and “none”, respectively. Apparent melting transition temperature (Tm) was determined by the use of the maximum of the derivatives of the melt curve (dFluorescence/dT) by Protein Thermal Shift Software version 1.3 (Applied Biosystems).
The apparent dissociation constant (Kd-app) derived from the DSF results was estimated based on Eq 1 proposed by Schellman, assuming that the unfolding of the protein is reversible: ΔTm=Tm−T0=TmT0R/ΔH^0ln(1+[L]/Kd-app) (1) where [L] is the ligand concentration; Tm and T0 are the apparent melting transition temperatures in the presence and absence of the ligand; R is the gas constant; ΔH^0 is the enthalpy of unfolding at T0, assuming that there are no significant variations under the tested conditions. If the melt curves show biphasic profiles, the second (or the right side) Tm values were adopted for calculation, as described in the Results section.
For multiple regression analyses shown in Fig 2B, the apparent Tm values determined at different ligand concentrations were fitted to Eq 1 by using KaleidaGraph (Synergy Software), assuming that the change of the dissociation constant accompanied by the Tm shift is negligible.

[4] = system: T1r2a/T1r3LBD; set-up: method as in Nuemket, Yasui, et al. [11]; details: ref Nuemket, Yasui, et al. [11]; read-out: FRET EC50; cited from earlier work
[5] = cited from earlier work; for Hydropathy Index: hydrophobicity/hydrophilicity, ref Kyte & Doolittle, J. Mol. Biol., 157, 105 (1982); for pI: ref Handbook of Chemistry and Physics, CRC Press; for logKd_CW (polarity): transfer from cyclohexane to an aqueous solution, ref Radzicka & Wolfenden, Biochemistry, 27, 1664 (1988); for Es'c (steric effects) / πα (hydrophobicity) / HP (hydration potential): α-substituent group; for Es'c (steric effects) / πα (hydrophobicity): ref Akamatsu et al., J. Pharm. Sci., 83, 1026 (1994); for HP (hydration potential): ref Wolfenden et al., Biochemistry, 20, 849 (1981)
[6] = 5 mM amino acid, n = 6 (n = 12 for L-glutamine)
[7] = estimated from ΔRFU at 5 mM by Hill equation, ΔRFUmax 104.3, read-out: EC50-est
[8] = estimated from ΔRFU at 10 mM by Hill equation, ΔRFUmax 104.3, read-out: EC50-est
[9] = Tm at 8 or 9 ligand concentrations fitted to Eq 1 (Schellman), fitted parameter ± s.e., read-out: DSF Kd-app
[10] = read-out: Kd-app estimated at a single ligand concentration, from ΔTm at 0.1 mM via Eq 1, T0 326.1 K, ΔH0 72.1 kcal mol-1
[11] = read-out: Kd-app estimated at a single ligand concentration, from ΔTm at 1 mM via Eq 1, T0 326.1 K, ΔH0 72.1 kcal mol-1
[12] = read-out: Kd-app estimated at a single ligand concentration, from ΔTm at 10 mM via Eq 1, T0 326.1 K, ΔH0 72.1 kcal mol-1

T1 sequence (A0A173M0G2 entry or part of it): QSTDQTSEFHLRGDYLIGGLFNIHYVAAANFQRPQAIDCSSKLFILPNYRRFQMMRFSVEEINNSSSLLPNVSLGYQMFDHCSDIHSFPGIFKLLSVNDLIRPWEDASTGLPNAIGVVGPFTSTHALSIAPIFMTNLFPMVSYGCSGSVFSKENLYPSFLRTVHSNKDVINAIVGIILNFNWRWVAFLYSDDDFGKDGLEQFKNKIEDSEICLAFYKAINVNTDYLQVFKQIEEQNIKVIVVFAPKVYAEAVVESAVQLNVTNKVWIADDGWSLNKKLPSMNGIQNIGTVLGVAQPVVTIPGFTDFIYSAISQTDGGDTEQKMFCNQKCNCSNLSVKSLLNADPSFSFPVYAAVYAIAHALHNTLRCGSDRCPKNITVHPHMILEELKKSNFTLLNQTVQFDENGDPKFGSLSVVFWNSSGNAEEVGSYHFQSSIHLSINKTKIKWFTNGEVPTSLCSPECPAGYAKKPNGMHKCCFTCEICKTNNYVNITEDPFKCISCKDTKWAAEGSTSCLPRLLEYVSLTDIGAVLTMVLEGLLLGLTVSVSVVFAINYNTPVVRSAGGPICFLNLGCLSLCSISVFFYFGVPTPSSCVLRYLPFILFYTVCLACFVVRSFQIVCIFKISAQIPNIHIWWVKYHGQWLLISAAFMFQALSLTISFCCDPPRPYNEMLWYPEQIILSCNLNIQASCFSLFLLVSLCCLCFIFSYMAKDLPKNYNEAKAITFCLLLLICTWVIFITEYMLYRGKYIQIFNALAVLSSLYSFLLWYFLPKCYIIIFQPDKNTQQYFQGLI
T1 sequence (A0A173M094 entry or part of it): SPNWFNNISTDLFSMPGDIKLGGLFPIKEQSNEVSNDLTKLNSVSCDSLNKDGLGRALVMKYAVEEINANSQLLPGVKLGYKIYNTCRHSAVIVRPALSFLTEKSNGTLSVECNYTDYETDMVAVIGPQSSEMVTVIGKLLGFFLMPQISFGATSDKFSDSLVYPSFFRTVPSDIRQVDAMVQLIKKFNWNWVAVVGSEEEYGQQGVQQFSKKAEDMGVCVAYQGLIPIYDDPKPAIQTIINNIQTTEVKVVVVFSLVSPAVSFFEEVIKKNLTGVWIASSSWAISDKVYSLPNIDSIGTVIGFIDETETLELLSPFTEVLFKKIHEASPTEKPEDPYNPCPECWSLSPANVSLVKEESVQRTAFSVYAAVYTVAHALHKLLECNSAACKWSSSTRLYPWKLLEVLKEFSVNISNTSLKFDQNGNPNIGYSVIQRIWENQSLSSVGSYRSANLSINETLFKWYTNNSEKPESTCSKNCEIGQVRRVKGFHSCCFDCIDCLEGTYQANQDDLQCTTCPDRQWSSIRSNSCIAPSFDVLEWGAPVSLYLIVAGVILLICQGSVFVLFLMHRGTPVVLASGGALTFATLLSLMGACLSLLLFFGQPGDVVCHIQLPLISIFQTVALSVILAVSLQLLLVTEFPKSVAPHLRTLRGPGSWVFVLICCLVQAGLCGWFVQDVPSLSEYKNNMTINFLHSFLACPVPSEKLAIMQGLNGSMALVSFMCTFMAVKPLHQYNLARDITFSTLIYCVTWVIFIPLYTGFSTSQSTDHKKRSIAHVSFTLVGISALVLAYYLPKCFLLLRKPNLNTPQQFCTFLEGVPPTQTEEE
Chain of medaka T1r2a/T1r3LBD (A0A173M094 entry or part of it): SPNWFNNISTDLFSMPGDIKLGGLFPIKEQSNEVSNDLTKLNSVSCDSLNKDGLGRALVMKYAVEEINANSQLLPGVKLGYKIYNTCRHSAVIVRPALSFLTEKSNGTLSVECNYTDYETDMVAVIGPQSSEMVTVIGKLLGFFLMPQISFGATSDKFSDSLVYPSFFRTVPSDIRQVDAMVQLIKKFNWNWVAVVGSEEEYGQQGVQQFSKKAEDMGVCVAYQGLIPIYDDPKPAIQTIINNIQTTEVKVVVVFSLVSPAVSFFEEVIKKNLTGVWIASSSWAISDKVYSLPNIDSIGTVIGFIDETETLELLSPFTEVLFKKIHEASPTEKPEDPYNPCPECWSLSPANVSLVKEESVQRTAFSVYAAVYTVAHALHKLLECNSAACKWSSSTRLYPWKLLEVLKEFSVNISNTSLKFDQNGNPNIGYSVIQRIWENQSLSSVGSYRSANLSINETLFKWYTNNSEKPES
Chain of medaka T1r2a/T1r3LBD (A0A173M0G2 entry or part of it): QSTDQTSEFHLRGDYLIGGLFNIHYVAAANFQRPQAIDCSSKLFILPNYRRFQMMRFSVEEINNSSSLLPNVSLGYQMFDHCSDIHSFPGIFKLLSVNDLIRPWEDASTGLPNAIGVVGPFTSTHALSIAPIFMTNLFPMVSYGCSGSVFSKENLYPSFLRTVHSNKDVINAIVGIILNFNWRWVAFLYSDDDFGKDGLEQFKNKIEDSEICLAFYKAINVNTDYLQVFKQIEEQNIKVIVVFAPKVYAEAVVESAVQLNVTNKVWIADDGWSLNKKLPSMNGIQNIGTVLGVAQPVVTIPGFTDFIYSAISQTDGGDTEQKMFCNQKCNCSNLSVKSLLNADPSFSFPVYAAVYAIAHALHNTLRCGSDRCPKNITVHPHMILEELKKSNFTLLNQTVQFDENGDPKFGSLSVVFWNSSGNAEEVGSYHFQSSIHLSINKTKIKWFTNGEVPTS

SMILES	ΔRFU [2, 6]	ΔRFU ([2]; 10 mM amino acid, n = 6)	EC50 [2, 7]	EC50 [2, 8]	ΔTm ([3]; 0.1 mM amino acid)	ΔTm ([3]; 1 mM amino acid)	ΔTm ([3]; 10 mM amino acid)	Kd [3, 9]	EC50 [4]	effect on thermal stability / Tm shift of T1r2a/T1r3LBD (in words) [3]	Kd-app fold difference compared with FRET EC50 ([3]; Kd-app from 0.1 mM)	Kd-app fold difference compared with FRET EC50 ([3]; Kd-app from 1 mM)	Kd-app fold difference compared with FRET EC50 ([3]; Kd-app from 10 mM)	potency estimated from few doses [3, 10]	potency estimated from few doses [3, 11]	potency estimated from few doses [3, 12]	Hydropathy Index [5]	pI [5]	logKd_CW (polarity) [5]	Es'c (steric effects) [5]	also measured
NC(=O)CCC(N)C(=O)O (stereo in doubt) [D-glutamine]																					full-length receptor response (in words) [1]: significantly weak responses
NCC(=O)O [Gly, glycine]	13.4 ± 3.45	46.2 ± 9.00	33800 µM	12600 µM	-0.04 ± 0.12 K	-0.15 ± 0.07 K	5.08 ± 0.06 K	3570 ± 4090 µM	6180 ± 3320 µM												pEC50-est ([2]; from response at 5 mM, log 1/EC50-est): 1.47; pEC50-est ([2]; from response at 10 mM, log 1/EC50-est): 1.90; potency estimated from few doses ([3]; from ΔTm at 10 mM via Eq 1, T0 326.1 K, ΔH0 72.1 kcal mol-1, read-out: Kd-app estimated at a single ligand concentration): 2220 µM; pKd-app ([3]; log 1/Kd-app, converted from S1 Table values (10 mM; L-Ala 1 mM, L-Gln 0.1 mM)): 2.65
C[C@H](N)C(=O)O [L-Ala, L-alanine]	64.7 ± 12.8	90.8 ± 9.46	3060 µM	1490 µM	0.41 ± 0.09 K	6.92 ± 0.03 K	11.1 ± 0.02 K	54.1 ± 24.5 µM	141 ± 37 µM	exhibited large Tm shifts	4.71 fold	0.782 fold	1.91 fold	664 µM	110 µM	269 µM	1.8	6	-1.33	-0.2	EC50 ([2]; from response at 5 mM, log 1/EC50-est, read-out: pEC50-est (converted)): 3090 µM; EC50 ([2]; from response at 10 mM, log 1/EC50-est, read-out: pEC50-est (converted)): 1480 µM; πα (hydrophobicity) [5]: 0.28; HP (hydration potential) [5]: 1.94
N=C(N)NCCC[C@H](N)C(=O)O [L-Arg, arginine]	68.2 ± 5.39	63.4 ± 9.85			0.45 ± 0.17 K	6.98 ± 0.08 K	11.0 ± 0.05 K		190 ± 35 µM	thermally stabilized the protein	3.20 fold	0.568 fold	1.44 fold	608 µM	108 µM	274 µM	-4.5	10.76	4.32	-0.82	EC50 ([2]; EC50-est, estimated from ΔRFU at 5 mM by Hill equation, ΔRFUmax 104.3): 2650 µM; EC50 ([2]; EC50-est, estimated from ΔRFU at 10 mM by Hill equation, ΔRFUmax 104.3): 6440 µM; EC50 ([2]; pEC50-est, from response at 5 mM, log 1/EC50-est): 2630 µM; EC50 ([2]; pEC50-est, from response at 10 mM, log 1/EC50-est): 6460 µM; Kd ([3]; DSF Kd-app, Tm at 8 or 9 ligand concentrations fitted to Eq 1 (Schellman), fitted parameter ± s.e.): 131 ± 66 µM; Kd ([3]; pKd-app, log 1/Kd-app, converted from S1 Table values (10 mM; L-Ala 1 mM, L-Gln 0.1 mM)): 275 µM; πα (hydrophobicity) [5]: -0.42; HP (hydration potential) [5]: -19.92

From article PMC6777825, “Differential scanning fluorimetric analysis of the amino-acid binding to taste receptor using a model receptor protein, the ligand-binding domain of fish T1r2a/T1r3” (PLoS ONE, 2019)
